Data reported in patent publication US10711313B2, “Kit for detecting ctDNA and expression of drug-resistant genes related to applicability of tumor chemotherapeutic drugs” (GUIZHOU MEDICAL UNIVERSITY, priority 2018, dated 2020).

Experiments:
[1] = Fluorescence in water, ethanol and acetone (aggregation-induced luminescence); format: physicochemical
Protocol: Fluorescence spectra were measured on a Perkin Elmer LS95, HITACH F-4500, and Edinburgh FLS920 fluorescence spectrometers at room temperature with laterally collection of fluorescence. Fluorescence lifetime was measured using the Edinburgh FLS920 fluorescence spectrometer. Two-photon fluorescence utilized laser pulses emitted by a Ti: sapphire Mira900-F mode-locked laser as the irradiation light source with a repetition frequency of 76 MHz and a pulse width of 200 fs using the SpectroPro 300i spectrometer to collect fluorescence laterally. […] All the test utilized 1.0 cm×1.0 cm Quartet pass quartz crystal cuvette. Reagents used to prepare solutions are either spectroscopic or chromatographic purified.
It can be seen that the fluorescence intensity of BHVC in aqueous solution is very weak and the fluorescence emission peak is at 627 nm. However, the fluorescence intensity in ethanol solution with the same concentration of BHVC increases by 30 times, and the fluorescence emission peak red-shifted to 631 nm. In fact, ethanol is a poor solvent for BHVC. Therefore, BHVC exists in the form of aggregates in ethanol solvent.

[2] = UV-Vis absorption of aqueous solutions at different concentrations (solubility); format: physicochemical; details: 10^-6 to 10^-4 mol/L, no shift of UV absorption spectrum
From the text: The UV-vis absorption spectra of aqueous solutions of different concentrations of BHVC are shown in FIG. 1, the absorption peak at […] is derived from the absorption of the two cross-shaped skeletons of BHVC, and the absorption peak at […] is the characteristic absorption peak of tetraphenylethylene group. When the concentration of BHVC in aqueous solution changed from 10^−6 mol/L to 10^−4 mol/L, there was no red-shift or blue-shift of the UV absorption spectrum of the solution. In general, the shift of the absorption peak of the π-conjugated chromophore solution is due to the π-π interaction between the molecules.

ctDNA = ctDNA detection by fluorescence of the probe in Tris-HCl/KCl buffer pH 7.2; format: binding
Protocol: First, a buffer solution of pH 7.2 is prepared, the preparation process of which is as follows: 394 mg of Tris-HCl and 1.863 g of KCl are added to a 250 ml beaker, and deionized water is added to prepare a buffer solution containing 10 mmol/L Tris-HCl and 100 mmol/L KCl and of pH 7.2 buffer solution.
Then, the buffer solution was used to prepare 0-500 μg/ml ctDNA aqueous solutions, wherein the BHVC content was maintained at 5×10^−6 mol/L.
Taking deionized water solution with ctDNA content of 100 μg/ml as an example, the specific preparation process is described as follows: First, […] compound BHVC was added to a 100 ml volumetric flask, followed by the addition of 100 ml pH 7.2 buffer solution to formulate to a BHVC buffer solution of concentration of 10^−4 mol/L, then 1 ml the above solution was removed to dilute to 10 ml so that the concentration of BHVC was 10^−5 mol/L, 5 ml of this solution was taken and added to a clean spawn bottle.
Then […] ctDNA was taken and added to 10 ml volumetric flask, buffer was added to formulate as 100 μg/ml ctDNA solution, 1 ml this solution was taken, and then added to 4 ml buffer solution, the ctDNA concentration is diluted to 20 μg/ml, the ctDNA solution was added dropwise to the BHVC buffer solution previously placed in the spawn bottle under vigorous stirring. After the addition was completed, the ctDNA solution was allowed to stand still for 2 hours and its UV-Vis absorption and fluorescence spectra were measured.
Based on the study of the absorption and aggregation-induced luminescence properties of BHVC, the fluorescence occurrence behavior of BHVC buffer solution with different ctDNA concentrations was studied with a buffer solution of pH 7.2 and containing 10 mmol/L Tris-HCl and 100 mmol/L KCl, the changes in the detected fluorescence spectrum are shown in FIG. 3 (a). It can be seen from the figure: as the ctDNA concentration increases, the fluorescence intensity of the solution gradually increases, and the fluorescence peak is blue-shifted. When the content of ctDNA changed from 0 μg/ml to 50 μg/ml, the maximum emission peak of fluorescence spectrum shifted from 633 nm to 598 nm, that is blue shifted […]. When the ctDNA concentration was more than 50 μg/ml, the blue shift of the peak of the fluorescence spectrum appeared inflection point, the rate of change slowed down. When the ctDNA content was 500 μg/ml, the peak shifted to 576 nm, which was a blue shift of […] relative to the fluorescence spectrum of a 50 μg/ml DNA solution (FIG. 3 (b)).
The trend in the change of fluorescence intensity of the solution is shown in FIG. 4 (A), with the ctDNA concentration increases, the fluorescence intensity of the solution can be divided into two intervals. […]

With `CCn1c2cc(/C=C/c3cc[n+](C)cc3)ccc2c2ccc(/C=C/c3cc[n+](C)cc3)cc21.[I-].[I-]` [BHVC, 2,7-bis (1-methyl-4-vinylpyridine)-9-ethylcarbazole iodised salt] the “increase of fluorescence intensity in ethanol versus aqueous solution” value ([1]; 10^-5 mol/L, excitation 420 nm) was 30 times, the “solvent quality of ethanol for the probe” value ([1]; ethanol, exists as aggregates) was “poor solvent” and the “solubility in aqueous solution” value [2] was “good solubility”. For the same molecule, the “Stern-Volmer constant Ksv” value (ctDNA; ctDNA 0-50 μg/ml linear interval, I/I0=Ksv[Q]+1, excitation 420 nm) was 1.4×10^2, the “blue shift of emission peak (to 576 nm) relative to 50 μg/ml DNA solution” value (ctDNA; ctDNA 500 μg/ml) was 24 nm and the “increase of fluorescence intensity relative to 0 μg/ml ctDNA” value (ctDNA; ctDNA 500 μg/ml, BHVC 5×10^-6 mol/L) was 20 fold. The blue shift of maximum emission peak (633 nm to 598 nm) (ctDNA; ctDNA from 0 μg/ml to 50 μg/ml) was 35 nm.
